Where “and” joins values, the source holds several entries; their conditions need not be identical. Identical values can stand only once. Entries after “also recorded” stand apart in the source; their conditions may differ. Like-named read-outs stand apart in the source and are kept apart here.
Legend:
clinical = conditions: for AUC(0-t): AUC(0-12)
Experimental: (§1) To each sample of participant plasma or urine, A. aerogenes sulfatase (2.5 µL; 10–20 units/mL), and E. coli glucuronidase (2.5 µL; ∼5,000–50,000 units/mL) were used to release the analytes from their sulfate and β-D-glucuronic acid esters (Phase II metabolites). For calibration and validation samples, aqueous glycerol (5 µL) was added to mimic the enzymatic hydrolysis. For all analyses, 1% ascorbic acid (10 µL) was added prior to sample work up to limit oxidation. Samples were incubated (37°C) for 20 min and placed on ice to halt enzymatic activity. […] The supernatant was filtered (0.22 µm spinfilter) at 10,000 g for 5 min at 4°C and used for analysis. To optimize peak shape during analysis, the concentration of organic solvent (sample filtrate) was adjusted to a 60:40 ratio with HPLC grade water for TT analysis and a 90:10 ratio with 1% aqueous formic acid for CQA analysis.
(§2) HPLC-MS/MS was performed at the Oregon Health & Science University’s (OHSU) Bioanalytical Shared Resource/Pharmacokinetics Core (Portland, OR, United States). […] Chromatographic separation was achieved using a Poroshell 120 EC18 column (3 mm id × 50 mm; 2.7 µ) and a Poroshell ultra high-performance liquid chromatography (UHPLC) guard column (3.0 mm i.d. Å∼ 5 mm, 2.7 μ) (Agilent, Santa Clara, CA, United States). The injection volume was 20 μL and flow rate was 0.42 mL/min. Gradient elution was performed using a mobile phase of solvent A (water containing 10 mM ammonium acetate and 0.02% ammonium hydroxide; pH 8.5) and solvent B (methanol). […] Chromatographic separation was achieved using a Zorbax Eclipse plus C8 Rapid resolution (4.6 i.d. Å∼ 150 mm, 3.5 μ) column with a Zorbax Eclipse plus C8 Rapid resolution (4.6 i.d. Å∼ 12.5 mm, 5 μ) guard column (Agilent, Santa Clara, CA, United States). The injection volume was 5 μL and flow rate of 0.8 mL/min. Gradient elution was performed using a mobile phase of solvent A (water containing 0.05% v/v acetic acid) and solvent B (acetonitrile with 0.05% v/v acetic acid).
(§3) Briefly, two in-person study visits occurred a minimum of two weeks and a maximum of four weeks apart in which participants orally consumed 2 or 4 g of CAP (in a randomized order) on an empty stomach. Total study duration was eight weeks including follow-up adverse event monitoring. All study procedures were identical for each visit except for the CAP dose administered. Randomization (to prevent tolerance effects) was performed using an arm equivalence design by the OHSU Research Pharmacy. All study personnel were blind to randomization allocation until all data analysis had been finalized. […] Participants fasted for 10 h, excluding water, prior to each study visit and for 2 h after consuming the study intervention to standardize gastrointestinal transit time and minimize food effects. During study visits, participants were provided low-phytochemical snacks and meals by the OCTRI CTRC’s Bionutrition Unit devoid of the foods outlined in Section 2.5. At each study visit, a peripheral intravenous catheter was placed in the arm to allow for repeat blood sampling. Prior to CAP intake, 20 mL of baseline blood and 50 mL of baseline urine were collected. […] Plasma aliquots (2 mL) were frozen and stored at -80°C until analysis. […] A 50 mL aliquot was retained and frozen at −80°C for renal excretion analysis.
(§4) Sample preparation and analysis: Plasma and urine sample preparation and analyte quantification by LC-MS/MS were performed in duplicate for each time point and visit (Sections 2.2–2.4). Due to the possibility of residual interference from the participant’s diet and unique, individual matrix effects, calibration curves were generated for each participant using their baseline plasma collected at the corresponding visit.

[1] = Experimental: as §1, §2, §3, §4
[2] = human, 2 weeks
[3] = older adults on cholinesterase inhibitors, ref Wright et al., 2022, cited from earlier work
[4] = cited from earlier work; for Cmax: Songvut et al., 2021
[5] = cited from earlier work
[6] = Analyte storage stability in human urine
[7] = Analyte storage stability in human plasma
[8] = condition 1 long-term storage at −80°C, low concentration
[9] = condition 2 freeze-thaw, medium concentration
[10] = condition 3 overnight storage at 4°C, low concentration
[11] = condition 2 three freeze-thaw cycles, low concentration
[12] = condition 3 4°C for 24 h, medium concentration
[13] = both, human, plasma, po, 2 g, single oral 2 g CAW (CAP), n = 7, mean (SEM)
[14] = both, human, plasma, po, 2 g, Cmax, single oral 2 g CAW (CAP), healthy older adults, n = 7, plasma, mean (SEM), ^ = below LLoQ
[15] = both, human, plasma, po, 2 g, T1/2, single oral 2 g CAW (CAP), n = 7, mean (SEM)
[16] = both, human, plasma, po, 2 g, Tmax, single oral 2 g CAW (CAP), n = 7, mean (SEM)
[17] = both, human, plasma, po, 4 g, single oral 4 g CAW (CAP), n = 7, mean (SEM)
[18] = both, human, plasma, po, 4 g, Cmax, single oral 4 g CAW (CAP), healthy older adults, n = 7, plasma, mean (SEM), ^ = below LLoQ
[19] = both, human, plasma, po, 4 g, T1/2, single oral 4 g CAW (CAP), n = 7, mean (SEM)
[20] = both, human, plasma, po, 4 g, Tmax, single oral 4 g CAW (CAP), n = 7, mean (SEM)
[21] = single oral 2 g CAW (CAP), n = 7, mean (SEM)
[22] = single oral 4 g CAW (CAP), n = 7, mean (SEM)
[23] = condition 1 long-term storage at -80°C, low concentration
[24] = condition 2 three freeze-thaw cycles, medium concentration
[25] = condition 1 long-term storage at −80°C, medium concentration
[26] = condition 2 freeze-thaw, low concentration
[27] = encapsulated ECa 233, healthy adults, ref Songvut et al., 2019
[28] = condition 2 freeze-thaw, high concentration

Compound | T1/2 (clinical; both, human, in vivo, po) | Tmax (clinical; both, human, in vivo, po) | half-life (clinical; both, human, in vivo, po, T1/2) [h] | Tmax (clinical; both, human, in vivo, po, Tmax) [h] | Stability, percent of nominal concentration [6, 8] [%] | Stability, percent of nominal concentration [6, 9] [%] | Stability, percent of nominal concentration [7, 11] [%] | AUC(0-t) (clinical; [13]) [ng·h/mL] | Cmax (clinical; [14]) [ng/mL] | half-life (clinical; [15]) [h] | Tmax (clinical; [16]) [h] | AUC(0-t) (clinical; [17]) [ng·h/mL] | Cmax (clinical; [18]) [ng/mL] | half-life (clinical; [19]) [h] | Total urinary excretion (12 hr) [1, 21] | Total urinary excretion (12 hr) [1, 22] | Stability, percent of nominal concentration [7, 23] [%] | Stability, percent of nominal concentration [6, 25] [%] | further results
C[C@H]1[C@H](C)CC[C@]2(C(=O)O)CC[C@]3(C)C(=CC[C@@H]4[C@@]5(C)C[C@@H](O)[C@H](O)[C@@](C)(CO)[C@@H]5CC[C@]43C)[C@H]12 [AA, asiatic acid] | 4.9 (1.3) hr | 2.8 (0.2) hr | 4.1 | 2.2 |  |  |  |  |  |  |  |  |  |  |  |  |  |  | Cmax (clinical; both, human, in vivo, po, Cmax, range over both doses): 174 to 372 ng/mL; Tmax (clinical; both, human, in vivo, po, Tmax, range over both doses): 2.2 to 2.8 h; Total urinary excretion (12 hr) ([1]; in vivo, po): Not detected; Stability, percent of nominal concentration [2]: 111%; Cmax ([3]; 2 g CAP): 123 ng/mL; Cmax ([3]; 4 g CAP): 259 ng/mL; Tmax ([4]; human, in vivo): 1.5 h; Tmax ([5]; in vivo): 4 to 4.5 h
O=C(O)/C=C/c1ccc(O)c(O)c1 [CA, caffeic acid] | 10.3 (3.7) hr | 4.5 (1.6) hr | 8.4 | 5.3 | 211 | 129 | 108 |  |  |  |  |  |  |  |  |  |  |  | AUC(0-12) (clinical; both, human, in vivo, po): 2.4 (0.6) ng/mL*hr; AUC(0-t) (clinical; both, human, in vivo, po): 1.8 ng·h/mL; Cmax (clinical; both, human, in vivo, po, Cmax): 0.5 ng/mL; Stability, percent of nominal concentration [6, 10]: 224%; Stability, percent of nominal concentration ([6]; condition 3 overnight storage at 4°C, medium concentration): 86%; Stability, percent of nominal concentration ([7]; condition 3 4°C for 24 h, low concentration): 63%; Stability, percent of nominal concentration [7, 12]: 75%
O=C(O)CCc1ccc(O)c(O)c1 [DHCA, Dihydrocaffeic acid] |  |  |  |  | 70 |  |  | 1.7 | 0.4 | 1.8 | 6.1 | 1.9 | 0.5 | 1.9 | 26.8 (10.0) µg | 24.8 (6.1) µg | 75 |  | Tmax (clinical; [20]): 3.2 h; Stability, percent of nominal concentration [6, 10]: 106%; Stability, percent of nominal concentration ([7]; condition 1 long-term storage at -80°C, medium concentration): 75%; Stability, percent of nominal concentration ([7]; condition 2 three freeze-thaw cycles, high concentration): 75%; Stability, percent of nominal concentration [7, 24]: 51%; Stability, percent of nominal concentration [7, 12]: 23%
COc1cc(CCC(=O)O)ccc1O [DHFA, Dihydroferulic acid] | 6.6 (3.8) hr | 5.7 (1.5) hr | 7.1 | 5.9 | 79 | 84 | 97 |  |  |  |  |  |  |  |  |  | 81 | 67 | AUC(0-12) (clinical; both, human, in vivo, po): 41.0 (12.7) ng/mL*hr; Cmax (clinical; both, human, in vivo, po): 8.1 (2.9) ng/mL; AUC(0-t) (clinical; both, human, in vivo, po): 35.6 ng·h/mL; Cmax (clinical; both, human, in vivo, po, Cmax): 9.3 ng/mL
COc1cc(/C=C/C(=O)O)ccc1O [FA, ferulic acid] |  |  |  |  | 81 |  |  |  |  |  |  |  |  |  | 146.8 (33.5) µg | 137.4 (24.6) µg | 129 |  | Cmax (clinical; single oral 2 g CAW (CAP), healthy older adults, n = 7, plasma, mean (SEM), ^ = below LLoQ): 1.5 (0.3) ng/mL; AUC(0-12) (clinical; [21]): 11.3 (2.9) ng/mL*hr; T1/2 (clinical; [21]): 14.1 (3.9) hr; Tmax (clinical; [21]): 5.9 (1.3) hr; Cmax (clinical; single oral 4 g CAW (CAP), healthy older adults, n = 7, plasma, mean (SEM), ^ = below LLoQ): 1.5 (0.6) ng/mL; AUC(0-12) (clinical; [22]): 9.9 (2.8) ng/mL*hr; T1/2 (clinical; [22]): 2.9 (1.3) hr; Tmax (clinical; [22]): 7.1 (1.2) hr
O=C(O)CCc1cccc(O)c1 [HPP, 3-(3-hydroxyphenyl) propionic acid] |  |  |  |  | 48 |  |  | 56.8 | 5.8 | 5 | 7.4 | 50.2 | 10.6 | 2.6 | 223.4 (76.7) µg | 247.9 (73.6) µg |  | 81 | Tmax (clinical; [20]): 5.7 h; Stability, percent of nominal concentration [6, 26]: 96%
COc1ccc(/C=C/C(=O)O)cc1O [IFA, isoferulic acid] |  |  |  |  |  | 80 |  | 5.3 | 1.5 | 7 | 2.4 | 7.4 | 1.5 | 3.5 | 65.9 (23.1) µg |  |  |  | Stability, percent of nominal concentration ([6]; condition 1 long-term storage at −80°C, high concentration): 84%; Stability, percent of nominal concentration [6, 26]: less than 115%; Stability, percent of nominal concentration [7, 24]: 117%
C[C@H]1[C@H](C)CC[C@]2(C(=O)O)CC[C@]3(C)C(=CC[C@@H]4[C@@]5(C)C[C@@H](O)[C@H](O)[C@@](C)(CO)[C@@H]5[C@H](O)C[C@]43C)[C@H]12 [MA, madecassic acid] |  | 2.2 to 2.8 h |  |  |  |  | 100 |  |  |  |  |  |  |  |  |  |  |  | Cmax (clinical; both, human, in vivo, po): 107 to 197 ng/mL; Cmax (clinical; both, human, in vivo, po, 2 g): 210 nM and 107 ng/mL; Tmax (clinical; both, human, in vivo, po, 2 g): 2.4 h; half-life (clinical; both, human, in vivo, po, 2 g): 9.2 h; Cmax (clinical; both, human, in vivo, po, 4 g): 390 nM and 197 ng/mL; Tmax (clinical; both, human, in vivo, po, 4 g): 2.7 h; half-life (clinical; both, human, in vivo, po, 4 g): 6.7 h; Cmax ([3]; 2 g CAP): 38 ng/mL; Cmax ([3]; 4 g CAP): 63 ng/mL; Cmax ([4]; ECa 233 250 mg, ref Songvut et al., 2019): 40 ng/mL; Cmax ([4]; ECa 233 500 mg, ref Songvut et al., 2019): 52 ng/mL; Tmax [4, 27]: 1.5 h; Cmax ([4]; read-out: Cmax (molar), ECa 233 250 mg, ref Songvut et al., 2019): 80 nM; Cmax ([4]; read-out: Cmax (molar), ECa 233 500 mg, ref Songvut et al., 2019): 100 nM; Tmax ([5]; capsular form, ref Grimaldi et al., 1990, Leng et al., 2013, Wright et al., 2022): 4 to 4.5 h; Stability, percent of nominal concentration [6, 28]: 80%
madecassoside [MS] |  |  |  |  | 57 | 78 |  |  |  |  |  |  |  |  | Not detected | Not detected |  | 84 | Detection in plasma (clinical; after 2 or 4 g CAP, oral): not detected; also recorded: below the LoD; Tmax [4, 27]: 1 to 2 h; Stability, percent of nominal concentration [6, 28]: 82%

— paper PMC10481538, “Bioanalytical method validation and application to a phase 1, double-blind, randomized pharmacokinetic trial of a standardized Centella asiatica (L.) Urban water extract product in healthy older adults” (Frontiers in Pharmacology, 2023)
